These results are taken from article PMC5676022, “Pyrrolyl Pyrazoline Carbaldehydes as Enoyl-ACP Reductase Inhibitors: Design, Synthesis and Antitubercular Activity” (The Open Medicinal Chemistry Journal, 2017).

By IC50 is commonly meant the point on the concentration scale where inhibition reaches its midpoint. Read a low IC50 as higher potency. The term MIC denotes the least concentration at which growth counts as inhibited. Read a low MIC as greater potency. For orientation: melting point means the temperature of the solid-liquid transition.

Converted amounts (≈) assume the structure as drawn.

Data set [1] relates to human lung cancer cell line A549. In words: MTT-based cytotoxicity assay. It counts as cell-based. The following applies: for IC50: Homo sapiens, A549, MTT, up to 100 µg/mL, average of three independent experiments; for cytotoxicity towards A549 (in words): A549, up to 100 µg/mL, compared to paclitaxel. On the procedure: Cellular conversion of MTT [3-(4,5-dimethylthiazo-2-yl)-2,5-diphenyl-tetrazolium bromide] into a formazan product was used to estimate cytotoxic activity (IC50) of some of the compounds against cell-line A549 (lung adenocarcinoma) up to concentrations of 100 µg/mL using 5×10^3cells/well in a 96-well flat-bottom micro plate and maintained at 37 °C in 95% humidity and 5% CO2 for overnight using paclitaxel as the positive control.
Certain therapeutic properties are to be determined to examine the antimycobacterial potential of a drug. Toxicity is one of these criteria.

The subject of data set [2] is M. tuberculosis H37Rv. In words: Microplate alamar blue assay (MABA), antitubercular activity. The following applies: 5 days at 37 C, lowest concentration preventing colour change blue to pink; for MIC: Mycobacterium tuberculosis, H37RV, 120 h. Type of data set: cell-based, Mycobacterium tuberculosis. A general note: Alamar Blue is a resazurin reagent that responds to reducing activity.

On to `CC(=O)O[C@H]1C(=O)[C@@]2(C)[C@H]([C@H](OC(=O)c3ccccc3)[C@]3(O)C[C@H](OC(=O)[C@H](O)[C@@H](NC(=O)c4ccccc4)c4ccccc4)C(C)=C1C3(C)C)[C@]1(OC(C)=O)CO[C@@H]1C[C@@H]2O` [paclitaxel, reference compound], for which, in data set [1], it took 47.6 µg/mL (≈ 55.8 µM) to reach half-maximal inhibition (IC50).
`O=CN1N=C(c2ccc(-n3cccc3)cc2)CC1c1c(Cl)cccc1Cl` (stereo not shown) [Compound 4e, (4-(1H-pyrrol-1-yl)Phenyl)-5-(2,6-Dichlorophenyl)-4,5-Dihydro-1H-Pyrazole-1-Carbaldehyde] registered a melting point of 208 to 210 °C. Also, the MIC in data set [2] turned out to be 25 µg/mL (≈ 65.1 µM).
`O=CN1N=C(c2ccc(-n3cccc3)cc2)CC1c1cccc(Oc2ccccc2)c1` (stereo not shown) [Compound 4n, (4-(1H-pyrrol-1-yl)Phenyl)-5-(3-Phenoxyphenyl)-4,5-Dihydro-1H-Pyrazole-1-Carbaldehyde] yielded a melting point of 128 to 130 °C. For the same compound, in data set [1], the “cytotoxicity towards A549 (in words)” value is “moderate cytotoxicity” and the IC50 came out at 72.9 µg/mL (≈ 179 µM). The MIC in data set [2] stood at 12.5 µg/mL (≈ 30.7 µM).
In turn, `O=CN1N=C(c2ccc(-n3cccc3)cc2)CC1c1ccc(Cl)cc1Cl` (stereo not shown) [Compound 4d, (4-(1H-pyrrol-1-yl)Phenyl)-5-(2,4-Dichlorophenyl)-4,5-Dihydro-1H-Pyrazole-1-Carbaldehyde] gave a melting point of 228 to 230 °C. This compound yielded an MIC in data set [2] of 25 µg/mL (≈ 65.1 µM).
`O=CN1N=C(c2ccc(-n3cccc3)cc2)CC1c1cccc(Cl)c1Cl` (stereo not shown) [Compound 4c, (4-(1H-pyrrol-1-yl)phenyl)-5-(2,3-Dichlorophenyl)-4,5-Dihydro-1H-Pyrazole-1-Carbaldehyde] registered a melting point of 163 to 165 °C. Also, the minimal inhibitory concentration (MIC) in data set [2] is 12.5 µg/mL (≈ 32.5 µM).
Taken in the same sequence, the figures for `O=CN1N=C(c2ccc(-n3cccc3)cc2)CC1c1ccccc1` (stereo not shown) [Compound 4a, 3-(4-(1H-Pyrrol-1-yl) Phenyl)-5-Phenyl-4,5-Dihydro-1H-Pyrazole-1-Carbaldehydes] were 178 to 180 °C and 100 µg/mL (≈ 317 µM).
The compound `O=CN1N=C(c2ccc(-n3cccc3)cc2)CC1c1cccc(Br)c1` (stereo not shown) [Compound 4m, (4-(1H-Pyrrol-1-yl)Phenyl)-5-(3-Bromophenyl)-4,5-Dihydro-1H-Pyrazole-1-Carbaldehyde] registered a melting point of 168 to 170 °C. In addition, in data set [1], the “cytotoxicity towards A549 (in words)” value is on record as “moderate cytotoxicity” and the IC50 was determined as 76 µg/mL (≈ 193 µM). In data set [2], this compound had a minimal inhibitory concentration (MIC) of 12.5 µg/mL (≈ 31.7 µM).
For `O=CN1N=C(c2ccc(-n3cccc3)cc2)CC1c1ccc(Cl)cc1` (stereo not shown) [Compound 4b, (4-(1H-Pyrrol-1-yl) Phenyl)-5-(4-Chlorophenyl)-4,5-Dihydro-1H-Pyrazole-1-Carbaldehyde], in that order: 168 to 170 °C, “moderate cytotoxicity”, 75.6 µg/mL (≈ 216 µM) and 12.5 µg/mL (≈ 35.7 µM).
For `COc1cccc(C2CC(c3ccc(-n4cccc4)cc3)=NN2C=O)c1` (stereo not shown) [Compound 4h, (4-(1H-Pyrrol-1-yl)Phenyl)-5-(3-Methoxyphenyl)-4,5-Dihydro-1H-Pyrazole-1-Carbaldehyde], the melting point lay in the range of 158 to 160 °C. Moreover, in data set [1], the “cytotoxicity towards A549 (in words)” value was “moderate cytotoxicity” and inhibition was half-maximal at 76.5 µg/mL (≈ 222 µM) (IC50). In data set [2], the “MIC values M. tuberculosis H37Rv” value worked out at 6.25 µg/mL (≈ 18.1 µM) and the MIC came out at 6.25 µg/mL (≈ 18.1 µM).
Take `COc1ccc(C2CC(c3ccc(-n4cccc4)cc3)=NN2C=O)cc1` (stereo not shown) [Compound 4g, (4-(1H-pyrrol-1-yl)phenyl)-5-(4-Methoxyphenyl)-4,5-Dihydro-1H-Pyrazole-1-Carbaldehyde]: the melting point was 112 to 114 °C. Besides, in data set [2], the “MIC values M. tuberculosis H37Rv” value was 6.25 µg/mL (≈ 18.1 µM) and inhibition of growth (MIC) required 6.25 µg/mL (≈ 18.1 µM).
The compound `NC(=O)c1cnccn1` [pyrazinamide, reference compound] registered an MIC in data set [2] of 3.12 µg/mL (≈ 25.4 µM).
`Cc1ccc(C2CC(c3ccc(-n4cccc4)cc3)=NN2C=O)cc1` (stereo not shown) [Compound 4f, (4-(1H-pyrrol-1-yl)Phenyl)-5-(p-Tolyl)-4,5-Dihydro-1H-Pyrazole-1-Carbaldehyde] gave a melting point of 148 to 150 °C. The compound further showed an MIC in data set [2] of 25 µg/mL (≈ 75.9 µM).
In data set [2], `[H]/N=C(/N)N[C@H]1[C@H](O)[C@@H](O)[C@H](O[C@@H]2O[C@@H](C)[C@](O)(C=O)[C@H]2O[C@@H]2O[C@@H](CO)[C@H](O)[C@@H](O)[C@@H]2NC)[C@@H](N/C(N)=N\[H])[C@@H]1O` [streptomycin, reference compound] yielded an MIC of 6.25 µg/mL (≈ 10.7 µM).
With `O=CN1N=C(c2ccc(-n3cccc3)cc2)CC1c1ccco1` (stereo not shown) [Compound 4o, (4-(1H-Pyrrol-1-yl)phenyl)-5-(Furan-2-yl)-4,5-Dihydro-1H-pyrazole-1-Carbaldehyde], the melting point lay within 152 to 154 °C. The compound further yielded a minimum inhibitory concentration (MIC) in data set [2] of 50 µg/mL (≈ 164 µM).
Turning to `CC(C)c1ccc(C2CC(c3ccc(-n4cccc4)cc3)=NN2C=O)cc1` (stereo not shown) [Compound 4l, (4-(1H-Pyrrol-1-yl)Phenyl)-5-(4-Isopropylphenyl)-4,5-Dihydro-1H-Pyrazole-1-Carbaldehyde], the melting point lay in the range of 140 to 142 °C. For the same compound, in data set [1], the “cytotoxicity towards A549 (in words)” value is “moderate cytotoxicity” and 71.1 µg/mL (≈ 199 µM) corresponded to half-maximal inhibition (IC50). In addition, in data set [2], the MIC is 100 µg/mL (≈ 280 µM).
On to `O=CN1N=C(c2ccc(-n3cccc3)cc2)CC1c1ccc(F)cc1` (stereo not shown) [Compound 4k, (4-(1H-Pyrrol-1-yl)phenyl)-5-(4-Fluorophenyl)-4,5-Dihydro-1H-Pyrazole-1-Carbaldehyde], for which inhibition of growth in data set [2] (MIC) required 12.5 µg/mL (≈ 37.5 µM).
In turn, `COc1ccc(C2CC(c3ccc(-n4cccc4)cc3)=NN2C=O)c(OC)c1` (stereo not shown) [Compound 4i, (4-(1H-Pyrrol-1-yl)Phenyl)-5-(2,4-Dimethoxyphenyl)-4,5-Dihydro-1H-Pyrazole-1-Carbaldehyde] had a melting point of 160 to 162 °C. Moreover, in data set [1], the “cytotoxicity towards A549 (in words)” value is “moderate cytotoxicity” and inhibition was half-maximal at 73.3 µg/mL (≈ 195 µM) (IC50). In addition, in data set [2], the “MIC values M. tuberculosis H37Rv” value was 3.125 µg/mL (≈ 8.32 µM) and 3.12 µg/mL (≈ 8.32 µM) was the least that counted as inhibitory (MIC).
The compound `COc1ccc(C2CC(c3ccc(-n4cccc4)cc3)=NN2C=O)cc1OC` (stereo not shown) [Compound 4j, (4-(1H-Pyrrol-1-yl) Phenyl)-5-(3,4-Dimethoxyphenyl)-4,5-Dihydro-1H-Pyrazole-1-Carbaldehyde] came in with a melting point of 133 to 135 °C. In data set [1], the “cytotoxicity towards A549 (in words)” value was “moderate cytotoxicity” and half-maximal inhibition (IC50) was put at 70.4 µg/mL (≈ 187 µM). This compound also returned an MIC in data set [2] of 12.5 µg/mL (≈ 33.3 µM).
